# In US20230226092A1, “CANCER […] ON G[…]” (NuCana plc, priority 2015, published 2023):
# System: advance progressive cancers that are refractory to, or have relapsed on, all conventional therapies
# Experiment: ProGem1 dose escalation clinical study: clinical response (RECIST 1.1, tumour markers)
# Assay type: in vivo, human
# Design: CA125 level / CA19.9 / CEA / CA125 / Tumour volume / CA 15.3 tumour marker / inhibin B: unit not given here
# Conditions: for CA 15.3 tumour marker: 726 at base; for inhibin B: 1,038 prior to study entry
# Excerpt: The following data were generated in clinical studies of NUC-1031 in human patients with advance progressive cancers that are refractory to, or have relapsed on, all conventional therapies that have been used to date. The results clearly illustrate the ability of NUC-1031 to successfully treat refractory cancers.
# Although the primary objectives of the dose escalation part of the study were to determine the Recommended Phase II Dose (RP2D) and safety profile, secondary objectives included determining the PK profile, however effective treatment of patients with a range of refractory cancers has also been observed as part of this study.
# A total of 68 patients have been entered into this dose escalation study, of which 49 were evaluable for clinical response in that they have received at least 2 Cycles of NUC-1031 and were therefore eligible for a RECIST 1.1 assessment.
# NUC-1031 was administered as a 5 to 30 minute intravenous slow bolus injection. • Schedule A: NUC-1031 was administered on days 1, 8, 15 of a 4 weekly Cycle. • Schedule B: NUC-1031 was administered on days 1, 5, 8, 12, 15, 19, of a 4 weekly Cycle.
# Evaluable patients were patients that received ≥ 2 Cycles of NUC-1031 and were therefore eligible for a RECIST 1.1 assessment at the end of Cycle 2. Where the disease response duration, measured in months, is followed by a “+” this indicates ongoing disease control as of the latest cut-off date.
# [1] = evaluable patients n = 49, RECIST 1.1
substance,measurement,setting,value
gemcitabine-[phenyl-benzoxy-L-alaninyl)]-phosphate [NUC-1031],Reduction in tumour volume,"Patient 037, pancreatic cancer, CT scan on 29th April 2014",30%
same,Reduction in tumour volume,"Patient 037, pancreatic cancer, end of Cycle 2 CT scan",18.4%
same,CEA,"Patient 037, pancreatic cancer, from 536 at baseline",42
same,CA19.9,"Patient 037, pancreatic cancer, from 15,000 at baseline","4,000"
same,Response to RECIST,"Patient 038, ovarian cancer, 900 mg/m^2 weekly",Progressive Disease
same,Increase in tumour volume,"Patient 038, ovarian cancer, end of Cycle 2 scan",25%
same,Disease response duration,"Patient 040, cholangiocarcinoma",4 months
same,CA19.9,"Patient 040, cholangiocarcinoma, 4th June, from 664 at baseline",155
same,Response to RECIST,"Patient 040, cholangiocarcinoma, 1,000, then 900 mg/m^2 weekly",Stable Disease
same,Tumour volume,"Patient 040, cholangiocarcinoma, end of Cycle 2 CT scan, from 85 at base",82.1
same,Disease response duration,"Patient 041, breast cancer",4 months
same,Symptomatic benefit,"Patient 041, breast cancer",managed to reduce opioids significantly
same,CA 15.3 tumour marker,"Patient 041, breast cancer, 19th May 2014",824
same,Response to RECIST,"Patient 041, breast cancer, 900, then 825 mg/m^2 weekly",Stable Disease
same,CA 15.3 tumour marker,"Patient 041, breast cancer, at C2",845
same,Response to RECIST,"Patient 042, cholangiocarcinoma, 900 mg/m^2 weekly",Progressive Disease
same,Reduction in tumour volume of primary target lesion,"Patient 042, cholangiocarcinoma, end of Cycle 2 CT scan",9%
same,Disease response duration,"Patient 043, ovarian cancer",13 months
same,PET scan finding,"Patient 043, ovarian cancer, 7th April 2014",stable disease and SUV had gone down in some target tumours
same,CA125,"Patient 043, ovarian cancer, 15th July, from 1,099 at baseline",910
same,Response to RECIST,"Patient 043, ovarian cancer, 900, then 750 mg/m^2 weekly",Stable Disease
same,CA125,"Patient 043, ovarian cancer, beginning of Cycle 2, from 1.099 at baseline",783
same,Reduction in tumour volume from baseline,"Patient 043, ovarian cancer, end of Cycle 6 CT scan",10%
same,Volume of fluid drained from pleural effusion,"Patient 043, ovarian cancer, was 300ml per week",150 ml per week
same,Disease response duration,"Patient 044, lung cancer",5 months
same,Response to RECIST,"Patient 044, lung cancer (adenocarcinoma), 900, then 825 mg/m^2 weekly",Stable Disease
same,Reduction in tumour volume,"Patient 044, lung cancer, end of Cycle 2 CT scan",10%
same,Disease response duration,"Patient 046, adrenal carcinoma",11 months
same,Response to RECIST,"Patient 046, adrenal carcinoma, 1,000, then 900, 750, 625 mg/m^2 weekly",Stable Disease
same,Reduction in tumour volume from baseline,"Patient 046, adrenal carcinoma, end of Cycle 6 CT scan",12.6%
same,Disease response duration,"Patient 048, ovarian cancer",8 months
same,Response to RECIST,"Patient 048, ovarian cancer (granulosa cell tumour), 1,000, then 900, 825, 750, 625 mg/m^2 weekly",Stable Disease
same,inhibin B,"Patient 048, ovarian cancer, August",1148
same,inhibin B,"Patient 048, ovarian cancer, July 2014","1,106"
same,inhibin B,"Patient 048, ovarian cancer, September",1053
same,PET scan finding,"Patient 048, ovarian cancer, end of Cycle 1",stable disease and reduction in SUV at target sites
same,Symptomatic benefit,"Patient 050 (202), oesophageal cancer",improvement in their dysphagia
same,Response to RECIST,"Patient 050 (202), oesophageal cancer, 900 mg/m^2 weekly",Progressive Disease
same,Response to RECIST,"Patient 051 (203), anal cancer, 900 mg/m^2 weekly",Progressive Disease
same,Disease response duration,"Patient 052 (204), oesophageal cancer",5 months
same,Response to RECIST,"Patient 052 (204), oesophageal cancer, 900, then 825 mg/m^2 weekly",Stable Disease
same,Response to RECIST,"Patient 053 (205), colon cancer, 900 mg/m^2 weekly",Progressive Disease
same,Response to RECIST,"Patient 055 (207), ovarian cancer, 900, then 825, 625 mg/m^2 weekly",Stable Disease
same,CA125,"Patient 055 (207), ovarian cancer, January 2015, 36 at baseline",24
same,Reduction in tumour volume from baseline,"Patient 055 (207), ovarian cancer, end of Cycle 6 CT scan",18%
same,Disease response duration,"Patient 055 (207), ovarian cancer, ongoing",≥ 10 months
same,Disease response duration,"Patient 057 (209), ovarian cancer",5 months
same,Response to RECIST,"Patient 057 (209), ovarian cancer, 900, then 825, 750 mg/m^2 weekly",Stable Disease
same,Reduction in tumour volume from baseline,"Patient 057 (209), ovarian cancer, end of Cycle 4 CT scan",10%
same,Disease response duration,"Patient 058 (210), lung cancer",4 months
same,Response to RECIST,"Patient 058 (210), lung cancer, 825, then 750 mg/m^2 weekly",Stable Disease
same,Disease response duration,"Patient 059 (211), cervical cancer",7 months
same,Response to RECIST,"Patient 059 (211), cervical cancer, 825, then 750, 625 mg/m^2 weekly",Stable Disease
same,Response to RECIST,"Patient 060 (212), pancreatic cancer, 825 mg/m^2 weekly",Progressive Disease
same,Disease response duration,"Patient 061 (213), colorectal cancer",3 months
same,Response to RECIST,"Patient 061 (213), colorectal cancer, 825 mg/m^2 weekly",Stable Disease
same,Reduction in tumour volume,"Patient 061 (213), colorectal cancer, end of Cycle 2 CT scan",2%
same,Disease response duration,"Patient 063 (215), ovarian cancer",3 months
same,Response to RECIST,"Patient 063 (215), ovarian cancer, 825, then 750, 625 mg/m^2 weekly",Stable Disease
same,Response to RECIST,"Patient 064 (216), trophoblastic cancer, 825 mg/m^2 weekly",Progressive Disease
same,Response to RECIST,"Patient 066 (218), colorectal cancer, 825, then 750, 625 mg/m^2 weekly",Stable Disease
same,Reduction in tumour volume from baseline,"Patient 066 (218), colorectal cancer, CT scan on 30th December",16%
same,Disease response duration,"Patient 066 (218), colorectal cancer, ongoing",≥ 8 months
same,Increase from baseline (EOS CT scan),"Patient 067 (219), osteosarcoma",1%
same,Response to RECIST,"Patient 067 (219), osteosarcoma, 825, then 750 mg/m^2 weekly",Stable Disease
same,Disease response duration,"Patient 067 (219), osteosarcoma, ongoing",≥ 7 months
same,Response to RECIST,"Patient 068 (220), lung cancer, 825 mg/m^2 weekly",Progressive Disease
same,Response to RECIST,"Patient 069 (221), colorectal cancer, 825, then 750, 675, 625, 500 mg/m^2 weekly",Stable Disease
same,PET scan finding,"Patient 069 (221), colorectal cancer, PET scan on 30/10",Partial Response
same,Reduction in tumour volume from baseline,"Patient 069 (221), colorectal cancer, end of C2 CT scan",11%
same,Reduction in tumour volume from baseline,"Patient 069 (221), colorectal cancer, end of C4 CT scan",26%
same,Disease response duration,"Patient 069 (221), colorectal cancer, ongoing",≥ 7 months
same,Clinical examination of metastases,"Patient 069 (221), colorectal cancer, pre C2 examination",cutaneous and sub cutaneous metastases were greatly reduced or almost vanished
same,"Best Overall Response: Partial Responses, patients (%)",[1],5 (10%)
same,"Best Overall Response: Progressive Disease, patients (%)",[1],11 (22%)
same,"Best Overall Response: Stable Disease, patients (%)",[1],33 (67%)
